According to US8124617B2, “Imidazopyridine compounds” (Takeda San Diego, Inc., priority 2005, dated 2012):

How the values were obtained:
[1] = target: T1, GST-hLGK1 (human hepatic GK) (Homo sapiens, UniProt P35557); assay: Measurement of GK activation value (Mant-ATP/Mant-ADP capillary electrophoresis, reaction rate); assay type: biochemical; details: concentration necessary for activation of 50% of the maximum activity value; 37° C., 60 min
T1 construct: made in house; host or cells: Escherichia coli BL21 (pGEX6P-2/hLGK1)
T1 sequence (P35557 1-464 isoform P35557-3): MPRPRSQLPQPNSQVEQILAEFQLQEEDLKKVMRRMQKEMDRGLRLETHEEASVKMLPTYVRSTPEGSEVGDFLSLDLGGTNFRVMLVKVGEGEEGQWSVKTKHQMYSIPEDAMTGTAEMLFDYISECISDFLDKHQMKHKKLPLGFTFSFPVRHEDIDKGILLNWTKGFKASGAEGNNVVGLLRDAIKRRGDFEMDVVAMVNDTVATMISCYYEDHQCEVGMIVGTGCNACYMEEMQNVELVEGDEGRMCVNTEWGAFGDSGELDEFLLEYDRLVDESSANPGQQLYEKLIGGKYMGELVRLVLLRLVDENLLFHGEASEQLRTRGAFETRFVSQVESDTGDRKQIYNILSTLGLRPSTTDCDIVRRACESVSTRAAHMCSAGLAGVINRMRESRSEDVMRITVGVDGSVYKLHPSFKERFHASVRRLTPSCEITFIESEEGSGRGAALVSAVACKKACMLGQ
Description: A plasmid DNA for expression of protein (GST-hLGK1) containing GST (Glutathione S-transferase) added to human hepatic GK amino terminal in Escherichia coli was prepared as follows.
BL21 strain (Stratagene) transformed with pGEX6P-2/hLGK1 obtained in Reference Example 1A was cultured with shaking in a 200 ml Erlenmeyer flask containing a 100 μg/ml ampicillin-containing LB medium (50 ml) at 37° C. for 14 hr. The culture medium (25 ml) was diluted with 100 μg/ml ampicillin-containing LB medium (225 ml), and further cultured with shaking in a 1 L Erlenmeyer flask at 37° C. for 1 hr. After cooling on ice the Erlenmeyer flask after culture, 100 mM Isopropyl-Thio-β-D-Galactopyranoside (IPTG) (125 μL) was added (final concentration 50 μM), and the mixture was cultured at 17° C. for 20 hr. After centrifugation of the culture medium, the obtained cells were ultrasonicated, and the object protein (GST-hLGK1) was purified from the supernatant using Glutathione Sepharose 4B (Amersham Biosciences).
A 50% solution (5 μL) of the test compound in dimethyl sulfoxide was added to each well of a 384 well black plate (Nalge Nunc). Then, 35 μL of a liquid obtained by diluting GST-hLGK1 obtained in Reference Example 2A with a measurement buffer (50 mM HEPES (pH 7.4), containing 200 mM KCl, 5 mM MgCl2, 2.5 mM DTT and 50 μM 2′-(or-3′)-O—(N-methylanthraniloyl)adenosine 5′-triphosphate (Mant-ATP) (Jena Bioscience)) was added to each well to 6 μg/mL.
Each well was stood at 37° C. for 10 min, and a 25 mM D-glucose solution (10 μL) was added to start the reaction.
Each well after the start of the reaction was stood at 37° C. for 60 min, and the reaction was quenched by adding 25 μL of a reaction quenching solution (200 mM HEPES (pH 7.4), containing 20 mM MgCl2, 200 mM EDTA, 0.03% Triton-X 100, 0.3% Coating 3 reagent (Caliper Life Sciences)).
Mant-ATP (substrate) and Mant-ADP (reaction resultant product) were separated from each well after quenching the reaction, with a microchip type capillary electrophoresis apparatus 250HTS (Caliper Life Sciences). The reaction rate [(peak height of reaction resultant product)/(peak height of reaction resultant product+peak height of substrate)×100(%)] was calculated from the ratio of the substrate peak height and the reaction resultant product peak height, which were obtained by fluorescence detection (excitation wavelength 355 nm, measurement wavelength 460 nm), and used as an index of the GK activity.
For the control, the reaction rate was calculated in the same manner as in the above except that “50% dimethyl sulfoxide solution” was used instead of the “50% solution of the test compound in dimethyl sulfoxide”.
A percentage obtained by dividing the reaction rate of the well added with the test compound (test compound addition group) by the reaction rate of the well added with a 50% dimethyl sulfoxide solution alone (control group) was taken as the GK activation value by the test compound, and the concentration of the test compound necessary for the activation of 50% of the maximum activity value is shown as an EC50 value.

EC50 [1] | melting point | Structure (SMILES)
0.4 µM | – | Cc1ccccc1-c1cnc2[nH]c(-c3cc(OCc4ccccc4)ccc3OC(C)C)nc2c1 [Example 47, 2-[5-(benzyloxy)-2-isopropoxyphenyl]-6-(2-methylphenyl)-3H-imidazo[4,5-b]pyridine]
3.7 µM | 69 to 71 °C | COC(=O)CNCc1cnc2[nH]c(-c3cc(OCc4ccccc4)ccc3OC(C)C)nc2c1 [Example 82, methyl N-({2-[5-(benzyloxy)-2-isopropoxyphenyl]-3H-imidazo[4,5-b]pyridin-6-yl}methyl)glycinate]
0.29 µM | – | CC(C)Oc1cc(OCc2ccccc2)ccc1-c1nc2cc(-c3ccc(F)cc3)cnc2[nH]1 [Example 50, 2-[4-(benzyloxy)-2-isopropoxyphenyl]-6-(4-fluorophenyl)-3H-imidazo[4,5-b]pyridine]
– | 170 to 171 °C | CC(C)Oc1ccc(OCc2ccccc2)cc1-c1nc2cc(C=O)cnc2[nH]1 [Example 77, 2-[5-(benzyloxy)-2-isopropoxyphenyl]-3H-imidazo[4,5-b]pyridine-6-carbaldehyde]
1.1 µM | – | CC(C)Oc1cc(OCc2ccccc2)cc(-c2nc3cc(-c4cccnc4)cnc3[nH]2)c1 [Example 61, 2-[3-(benzyloxy)-5-isopropoxyphenyl]-6-pyridin-3-yl-3H-imidazo[4,5-b]pyridine]
0.73 µM | 167 to 168 °C | CC(C)Oc1ccc(OCc2ccccc2)cc1-c1nc2cc(CO)cnc2[nH]1 [Example 76, {2-[5-(benzyloxy)-2-isopropoxyphenyl]-3H-imidazo[4,5-b]pyridin-6-yl}methanol]
0.82 µM | 67 to 68 °C | CC(C)Oc1ccc(OCc2ccccc2)cc1-c1nc2cc(CNCCOc3ccccc3)cnc2[nH]1 [Example 80, N-({2-[5-(benzyloxy)-2-isopropoxyphenyl]-3H-imidazo[4,5-b]pyridin-6-yl}methyl)-2-phenoxyethaneamine]
0.15 µM | 82 to 83 °C | CC(C)Oc1cc(OCCc2ccsc2)cc(-c2nc3cccnc3[nH]2)c1 [Example 3, 2-{3-isopropoxy-5-[2-(3-thienyl)ethoxy]phenyl}-3H-imidazo[4,5-b]pyridine]
0.13 µM | 136 to 137 °C | CC(C)Oc1cc(OCc2ccccc2)cc(-c2nc3cccnc3[nH]2)c1 [Example 2, 2-[3-(benzyloxy)-5-isopropoxyphenyl]-3H-imidazo[4,5-b]pyridine]
0.24 µM | – | COc1ccccc1-c1cnc2[nH]c(-c3cc(OCc4ccccc4)ccc3OC(C)C)nc2c1 [Example 48, 2-[5-(benzyloxy)-2-isopropoxyphenyl]-6-(2-methoxyphenyl)-3H-imidazo[4,5-b]pyridine]
0.2 µM | – | CC(C)Oc1cc(OCc2ccccc2)ccc1-c1nc2cc(-c3ccccc3F)cnc2[nH]1 [Example 72, 2-[4-(benzyloxy)-2-isopropoxyphenyl]-6-(2-fluorophenyl)-3H-imidazo[4,5-b]pyridine]
– | 182 to 184 °C | CC(C)Oc1ccc(OCc2ccccc2)cc1-c1nc2cc(CNCC(=O)O)cnc2[nH]1 [Example 83, N-({2-[5-(benzyloxy)-2-isopropoxyphenyl]-3H-imidazo[4,5-b]pyridin-6-yl}methyl)glycine]
– | 92 to 94 °C | CC(C)Oc1ccc(OCc2ccccc2)cc1-c1nc2cc(CNCc3ccccc3)cnc2[nH]1 [Example 79, N-benzyl-1-{2-[5-(benzyloxy)-2-isopropoxyphenyl]-3H-imidazo[4,5-b]pyridin-6-yl}methaneamine]
2.1 µM | – | COc1ccc(OCc2ccccc2)cc1-c1nc2cccnc2[nH]1 [Example 5, 2-(5-(benzyloxy)-2-methoxyphenyl)-3H-imidazo[4,5-b]pyridine]
1.6 µM | 110 to 112 °C | CC(C)Oc1cc(OCCCc2cccnc2)cc(-c2nc3cccnc3[nH]2)c1 [Example 4, 2-[3-isopropoxy-5-(3-pyridin-3-ylpropoxy)phenyl]-3H-imidazo[4,5-b]pyridine]
– | 80 to 81 °C | COCCNCc1cnc2[nH]c(-c3cc(OCc4ccccc4)ccc3OC(C)C)nc2c1 [Example 81, N-({2-[5-(benzyloxy)-2-isopropoxyphenyl]-3H-imidazo[4,5-b]pyridin-6-yl}methyl)-2-methoxyethaneamine]
0.28 µM | – | COc1ccc(-c2cnc3[nH]c(-c4cc(OCc5ccccc5)ccc4OC(C)C)nc3c2)c(OC)c1 [Example 45, 2-[5-(benzyloxy)-2-isopropoxyphenyl]-6-(2,4-dimethoxyphenyl)-3H-imidazo[4,5-b]pyridine]
– | 167 to 168 °C | CC(C)Oc1ccc(OCc2ccccc2)cc1-c1nc2ccc(CO)nc2[nH]1 [Example 87, {2-[5-(benzyloxy)-2-isopropoxyphenyl]-3H-imidazo[4,5-b]pyridin-5-yl}methanol]
– | 214 to 215 °C | CC(C)Oc1ccc(OCc2ccccc2)cc1-c1nc2ccc(C#N)nc2[nH]1 [Example 84, 2-[5-(benzyloxy)-2-isopropoxyphenyl]-3H-imidazo[4,5-b]pyridine-5-carbonitrile]
0.44 µM | – | CC(C)Oc1ccc(OCc2ccccc2)cc1-c1nc2cc(-c3cccnc3)cnc2[nH]1 [Example 40, 2-[5-(benzyloxy)-2-isopropoxyphenyl]-6-pyridin-3-yl-3H-imidazo[4,5-b]pyridine]
0.25 µM | – | COc1ccc(-c2cnc3[nH]c(-c4ccc(OCc5ccccc5)cc4OC(C)C)nc3c2)cc1 [Example 51, 2-[4-(benzyloxy)-2-isopropoxyphenyl]-6-(4-methoxyphenyl)-3H-imidazo[4,5-b]pyridine]
– | 138 to 140 °C | CCOC(=O)c1cnc2[nH]c(-c3cc(OCc4ccccc4)ccc3OC(C)C)nc2c1 [Example 74, ethyl 2-[5-(benzyloxy)-2-isopropoxyphenyl]-3H-imidazo[4,5-b]pyridine-6-carboxylate]
0.15 µM | – | CC(C)Oc1cc(OCc2ccccc2)ccc1-c1nc2cc(-c3cccc(F)c3)cnc2[nH]1 [Example 73, 2-[4-(benzyloxy)-2-isopropoxyphenyl]-6-(3-fluorophenyl)-3H-imidazo[4,5-b]pyridine]
– | 101 to 103 °C | CC(C)CNCc1cnc2[nH]c(-c3cc(OCc4ccccc4)ccc3OC(C)C)nc2c1 [Example 78, N-({2-[5-(benzyloxy)-2-isopropoxyphenyl]-3H-imidazo[4,5-b]pyridin-6-yl}methyl)-2-methylpropan-1-amine]
